Assay results published in patent publication US20210340629A1, “BIOMARKERS FOR CANCER THERAPY” (The Council of the Queensland Institute of Medical Research, priority 2018, published 2021).

Tested on: C006 and C092 melanoma cell lines
Experiment: Proliferation by IncuCyte Zoom real time cell imaging, less sensitive lines
Format: cell-based, human
Settings: C006 and C092, 5 μM, 48 hours, compared to vehicle
Protocol: Four cell lines were then chosen for further analysis. These were C006 (NRAS mt), C092 (Triple wt), C008 (NF1 mt) and D05 (BRAF mt). These four lines are representatives of the 4 cutaneous melanoma genomic subtypes and include 2 lines (C008 and D05) that were very sensitive to the inhibitor and 2 lines that were less sensitive (C006 and C092). Proliferation of these lines was evaluated by real time cell imaging using IncuCyte Zoom where cells were grown for 48 hours in the presence or absence of 5 μM UNC0642.
For proliferation studies, cells (5×10^3) were seeded in 96-place wells and allowed to adhere overnight, and incubated in fresh growth medium in the presence of either the G9a inhibitor UNC0642 (Sigma Aldrich) or the vehicle control DMSO (Sigma Aldrich). Proliferation was evaluated via real-time imaging using IncuCyte Zoom (Essen BioScience) and/or by performing a 3-(4,5-dimethylthiazol-2-yl)-2,5-diphenyltetrazolium bromide ([…]) assay. After monitoring the cells, 20 μL of MTT (5 mg/mL; Sigma-Aldrich) was added. The plates were incubated at 37° C. for 3 h before the supernatants were removed, and 100 μL of isopropanol was added to each well. The absorbance value (optical density) of each well was measured at 570 nm.

COc1cc2c(NC3CCN(C(C)C)CC3)nc(N3CCC(F)(F)CC3)nc2cc1OCCCN1CCCC1 [UNC0642] was tested, and the proliferation was “much less affected”.
